Experimental data from PubChem BioAssay AID2060899 (Molecular Pharmacology Branch, DTP, NCI, 2025).

Test system: 565726-208-R1-J5-PDC complex spheroids, growth inhibition
Test: Anticancer human tumor 565726-208-R1-J5-PDC patient-derived pancreatic adenocarcinoma cell line growth inhibition [RAS]
Conditions: for IC50: curve of first compound; for viability, T/C: stronger effect = lower value
In short: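 Multi-cell-type spheroids: tumor cells plus HUVEC endothelial cells and mesenchymal stem cells. RAS-pathway inhibitors were combined with targeted agents, each dosed in half-log steps down from clinical Cmax, or from 10 microM when Cmax was unknown.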

[1] = second compound 0.000949 µM, first compound 0.0316 µM
[2] = second compound 0.000949 µM, first compound 0.1 µM
[3] = second compound 0.000949 µM, first compound 0.316 µM
[4] = second compound 0.000949 µM, first compound 1 µM
[5] = second compound 0.000949 µM, first compound 3.16 µM
[6] = second compound 0.000949 µM, first compound 10 µM
[7] = second compound 0.003 µM, first compound 0.0316 µM
[8] = second compound 0.003 µM, first compound 0.1 µM
[9] = second compound 0.003 µM, first compound 0.316 µM
[10] = second compound 0.003 µM, first compound 1 µM
[11] = second compound 0.003 µM, first compound 3.16 µM
[12] = second compound 0.003 µM, first compound 10 µM
[13] = second compound 0.00949 µM, first compound 0.0316 µM
[14] = second compound 0.00949 µM, first compound 0.1 µM
[15] = second compound 0.00949 µM, first compound 0.316 µM
[16] = second compound 0.00949 µM, first compound 1 µM
[17] = second compound 0.00949 µM, first compound 3.16 µM
[18] = second compound 0.00949 µM, first compound 10 µM
[19] = second compound 0.03 µM, first compound 0.0316 µM
[20] = second compound 0.03 µM, first compound 0.1 µM
[21] = second compound 0.03 µM, first compound 0.316 µM
[22] = second compound 0.03 µM, first compound 1 µM
[23] = second compound 0.03 µM, first compound 3.16 µM
[24] = second compound 0.03 µM, first compound 10 µM
[25] = second compound 0.0949 µM, first compound 0.0316 µM
[26] = second compound 0.0949 µM, first compound 0.1 µM
[27] = second compound 0.0949 µM, first compound 0.316 µM
[28] = second compound 0.0949 µM, first compound 1 µM
[29] = second compound 0.0949 µM, first compound 3.16 µM
[30] = second compound 0.0949 µM, first compound 10 µM
[31] = second compound 0.3 µM, first compound 0.0316 µM
[32] = second compound 0.3 µM, first compound 0.1 µM
[33] = second compound 0.3 µM, first compound 0.316 µM
[34] = second compound 0.3 µM, first compound 1 µM
[35] = second compound 0.3 µM, first compound 3.16 µM
[36] = second compound 0.3 µM, first compound 10 µM
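Further: spheroids exposed to compounds for seven days before readout.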
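Wherever viability, T/C is given: 100% = DMSO vehicle control viability.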

NC1c2ccccc2OC12CCN(c1cnc3c(N4CCCc5ncccc54)n[nH]c3n1)CC2 (stereo unspecified) + CCn1c(-c2cc(N3CCN(C)CC3)cnc2C(C)OC)c2c3cc(ccc31)-c1csc(n1)CC(NC(=O)C1CC1C)C(=O)N1CCCC(N1)C(=O)OCC(C)(C)C2
IC50 (second compound 0.000949 µM): 45 nM
IC50 (second compound 0.003 µM): < 31.6 nM
IC50 (second compound 0.00949 µM): < 31.6 nM
IC50 (second compound 0.03 µM): < 31.6 nM
IC50 (second compound 0.0949 µM): < 31.6 nM
IC50 (second compound 0.3 µM): < 31.6 nM
viability, T/C [1]: 53.3%
viability, T/C [2]: 42.6%
viability, T/C [3]: 24.9%
viability, T/C [4]: 23.5%
viability, T/C [5]: 17.5%
viability, T/C [6]: 21.3%
viability, T/C [7]: 36.7%
viability, T/C [8]: 27.4%
viability, T/C [9]: 19.8%
viability, T/C [10]: 14.2%
viability, T/C [11]: 16.9%
viability, T/C [12]: 16.4%
viability, T/C [13]: 28.7%
viability, T/C [14]: 21%
viability, T/C [15]: 16.8%
viability, T/C [16]: 13.7%
viability, T/C [17]: 14.5%
viability, T/C [18]: 14%
viability, T/C [19]: 21.4%
viability, T/C [20]: 18%
viability, T/C [21]: 13.5%
viability, T/C [22]: 13%
viability, T/C [23]: 12.9%
viability, T/C [24]: 14.5%
viability, T/C [25]: 19.4%
viability, T/C [26]: 17%
viability, T/C [27]: 15.5%
viability, T/C [28]: 13.7%
viability, T/C [29]: 11.8%
viability, T/C [30]: 13.9%
viability, T/C [31]: 17.5%
viability, T/C [32]: 13.5%
viability, T/C [33]: 13.6%
viability, T/C [34]: 13.1%
viability, T/C [35]: 12%
viability, T/C [36]: 13.8%

CCc1c2c(nc3ccc(O)cc13)-c1cc3c(c(=O)n1C2)COC(=O)[C@]3(O)CC + CCn1c(-c2cc(N3CCN(C)CC3)cnc2C(C)OC)c2c3cc(ccc31)-c1csc(n1)CC(NC(=O)C1CC1C)C(=O)N1CCCC(N1)C(=O)OCC(C)(C)C2
IC50 (second compound 0.000949 µM): 1.36 nM
IC50 (second compound 0.003 µM): < 0.949 nM
IC50 (second compound 0.00949 µM): < 0.949 nM
IC50 (second compound 0.03 µM): < 0.949 nM
IC50 (second compound 0.0949 µM): < 0.949 nM
IC50 (second compound 0.3 µM): < 0.949 nM
viability, T/C (second compound 0.000949 µM, first compound 0.000949 µM): 58%
viability, T/C (second compound 0.000949 µM, first compound 0.003 µM): 32.1%
viability, T/C (second compound 0.000949 µM, first compound 0.00949 µM): 21.2%
viability, T/C (second compound 0.000949 µM, first compound 0.03 µM): 16.2%
viability, T/C (second compound 0.000949 µM, first compound 0.0949 µM): 9.45%
viability, T/C (second compound 0.000949 µM, first compound 0.3 µM): 5.7%
viability, T/C (second compound 0.003 µM, first compound 0.000949 µM): 47.9%
viability, T/C (second compound 0.003 µM, first compound 0.003 µM): 32.1%
viability, T/C (second compound 0.003 µM, first compound 0.00949 µM): 25.3%
viability, T/C (second compound 0.003 µM, first compound 0.03 µM): 17.7%
viability, T/C (second compound 0.003 µM, first compound 0.0949 µM): 12.1%
viability, T/C (second compound 0.003 µM, first compound 0.3 µM): 6.82%
viability, T/C (second compound 0.00949 µM, first compound 0.000949 µM): 36.1%
viability, T/C (second compound 0.00949 µM, first compound 0.003 µM): 30%
viability, T/C (second compound 0.00949 µM, first compound 0.00949 µM): 21.6%
viability, T/C (second compound 0.00949 µM, first compound 0.03 µM): 16%
viability, T/C (second compound 0.00949 µM, first compound 0.0949 µM): 12.1%
viability, T/C (second compound 0.00949 µM, first compound 0.3 µM): 6.89%
viability, T/C (second compound 0.03 µM, first compound 0.000949 µM): 27.9%
viability, T/C (second compound 0.03 µM, first compound 0.003 µM): 24.1%
viability, T/C (second compound 0.03 µM, first compound 0.00949 µM): 20.7%
viability, T/C (second compound 0.03 µM, first compound 0.03 µM): 15.9%
viability, T/C (second compound 0.03 µM, first compound 0.0949 µM): 11.9%
viability, T/C (second compound 0.03 µM, first compound 0.3 µM): 6.36%
viability, T/C (second compound 0.0949 µM, first compound 0.000949 µM): 22.6%
viability, T/C (second compound 0.0949 µM, first compound 0.003 µM): 23.4%
viability, T/C (second compound 0.0949 µM, first compound 0.00949 µM): 18.6%
viability, T/C (second compound 0.0949 µM, first compound 0.03 µM): 13.6%
viability, T/C (second compound 0.0949 µM, first compound 0.0949 µM): 10.4%
viability, T/C (second compound 0.0949 µM, first compound 0.3 µM): 6.38%
viability, T/C (second compound 0.3 µM, first compound 0.000949 µM): 21.4%
viability, T/C (second compound 0.3 µM, first compound 0.003 µM): 20.8%
viability, T/C (second compound 0.3 µM, first compound 0.00949 µM): 15.6%
viability, T/C (second compound 0.3 µM, first compound 0.03 µM): 14.6%
viability, T/C (second compound 0.3 µM, first compound 0.0949 µM): 10.7%
viability, T/C (second compound 0.3 µM, first compound 0.3 µM): 5.7%

C[C@@H](NC(=O)c1ncnc(N)c1Cl)c1ncc(C(=O)Nc2cc(C(F)(F)F)c(Cl)cn2)s1 + CCn1c(-c2cc(N3CCN(C)CC3)cnc2C(C)OC)c2c3cc(ccc31)-c1csc(n1)CC(NC(=O)C1CC1C)C(=O)N1CCCC(N1)C(=O)OCC(C)(C)C2
IC50 (second compound 0.000949 µM): > 10000 nM
IC50 (second compound 0.003 µM): > 10000 nM
IC50 (second compound 0.00949 µM): < 31.6 nM
IC50 (second compound 0.03 µM): < 31.6 nM
IC50 (second compound 0.0949 µM): < 31.6 nM
IC50 (second compound 0.3 µM): < 31.6 nM
viability, T/C [1]: 65.1%
viability, T/C [2]: 73.5%
viability, T/C [3]: 76.7%
viability, T/C [4]: 69.5%
viability, T/C [5]: 72.1%
viability, T/C [6]: 58%
viability, T/C [7]: 61%
viability, T/C [8]: 57.5%
viability, T/C [9]: 57.3%
viability, T/C [10]: 58.1%
viability, T/C [11]: 56.8%
viability, T/C [12]: 46.5%
viability, T/C [13]: 48%
viability, T/C [14]: 48.2%
viability, T/C [15]: 49.9%
viability, T/C [16]: 48%
viability, T/C [17]: 52.5%
viability, T/C [18]: 40.8%
viability, T/C [19]: 34.9%
viability, T/C [20]: 39.1%
viability, T/C [21]: 36.2%
viability, T/C [22]: 37.4%
viability, T/C [23]: 40.3%
viability, T/C [24]: 31.4%
viability, T/C [25]: 31.2%
viability, T/C [26]: 32.2%
viability, T/C [27]: 31.7%
viability, T/C [28]: 32.5%
viability, T/C [29]: 32.9%
viability, T/C [30]: 29.1%
viability, T/C [31]: 24.6%
viability, T/C [32]: 27.8%
viability, T/C [33]: 26.7%
viability, T/C [34]: 29.8%
viability, T/C [35]: 31%
viability, T/C [36]: 28.2%
